Laboratory results from patent US7342137B1, “Cyclohexenone compounds from Antrodia camphorata and application thereof” (Golden Biotechnology Corporation, priority 2007, dated 2008).

Experiments:
Assay type in all cases: cell-based
[1] = tested on: human hepatic cancer cells, Hep G2; test: In vitro Taxol add-on study (MTT), Hep G2; settings: Homo sapiens, HepG2, 0.0017 μg/ml Taxol + formula 2
Experimental: (§1) The experiment was also carried out according to NCI anti-cancer drug screen in vitro model. The human hepatic cancer cells, Hep 3B and Hep G2 and MDA-MB-231 were separately cultivated in media containing fetal calf serum for 24 hours. The proliferated cells were washed once with PBS, then treated with 1× trypsin-EDTA and centrifuged at 1200 rpm for 5 minutes. The supernatant was discarded and the cell pellet was resuspended in 10 ml of fresh culture medium by gently shaking. The Hep 3B cells were treated with 0.0043 μg/ml of Lovastatin for 72 hours and Hep G2 cells were treated with 0.0017 μg/ml of Taxol for 72 hours before placing in a 96-well plate. 4-hydroxy-2,3-dimethoxy-6-methyl-5(3,7,11-trimethyl-dodeca-2,6,10-trienyl)-cyclohex-2-enone obtained from example 1 were added respectively into each of the 96 wells at the following concentrations: 0 μg/ml (the control group); 30, 10, 3, 1, 0.3, 0.1 and 0.03 μg/ml (the experiment group). The cells were incubated at 37° C. in a 5% CO2 incubator for 48 hours. MTT was added in a concentration of 2.5 mg/ml into each well in dark and reacted for 4 hours, followed by the addition of 100 μl of lysis buffer to stop the reaction. The plates were read on an ELISA reader at wavelength of 570 nm to determine the survival rates.

[2] = tested on: human breast-cancer cells, MCF-7; test: In vitro Taxol add-on study (MTT), MCF-7; settings: Homo sapiens, MCF7, 0.0017 μg/ml Taxol + formula 2
Experimental: as §1, with “breast-cancer” for “hepatic cancer”, “MCF-7” for “Hep 3B and Hep G2”, “The” for “The Hep 3B”, “placed” for “treated with 0.0043 μg/ml of Lovastatin for 72 hours and Hep G2 cells were treated with 0.0017 μg/ml of Taxol for 72 hours before placing”, “plate after 0.0017 μg/ml Taxol was added and treated for 72 hours.” for “plate.”, “terminate” for “stop”

[3] = tested on: human hepatic-cancer cells, Hep G2; test: In vitro survival assay (MTT), hepatic cancer cells Hep G2; settings: HepG2, 48 hours incubation
Experimental: The NCI anti-cancer drug screen model was also adopted to test the anti-cancer effect of the compound isolated from example 1 in the present invention. The isolated compound of 4-hydroxy-2,3-dimethoxy-6-methyl-5(3,7,11-trimethyl-dodeca-2,6,10-trienyl)-cyclohex-2-enone from example 1 was added into the culture media of human hepatic-cancer cells, Hep 3B or Hep G2, for tumor cell survival assay.
The human hepatic-cancer cells, Hep 3B and Hep G2, were separately cultivated in media containing fetal calf serum for 24 hours. The proliferated cells were washed once with PBS, then treated with 1× trypsin-EDTA and centrifuged at 1200 rpm for 5 minutes. The supernatant was discarded and the cell pellet was resuspended in 10 ml of fresh culture medium by gently shaking. The cells were placed in a 96-well plate. Ethanol extracts of Antrodia camphorata (the control group, total extracts of Antrodia camphorata without purification) were added into each of the 96 wells at the following concentrations: 30, 10, 3, 1, 0.3, 0.1 and 0.03 μg/ml, respectively, while 4-hydroxy-2,3-dimethoxy-6-methyl-5(3,7,11-trimethyl-dodeca-2,6,10-trienyl)-cyclohex-2-enone (the experiment group) were added into each of the 96 wells at the following concentrations: 30, 10, 3, 1, 0.3, 0.1 and 0.03 μg/ml, respectively. […] The plates were read on an ELISA reader at wavelength of 570 nm to determine the survival rates.

[4] = tested on: human prostate cancer cells, LNCaP; test: In vitro Taxol add-on study (MTT), prostate cancer cells LNCaP; settings: Homo sapiens; LNCaP (0.0017 μg/ml Taxol + formula 2) as printed in Table 6
Experimental: as §1, with “human prostate” for “human hepatic”, “cells, LNCaP” for “cells, Hep 3B”, “and DU-145” for “and Hep G2 and MDA-MB-231”, “The LNCaP cells were treated with 0.0017 μg/ml of Taxol for 72 hours and DU-145” for “The Hep 3B”, “0.0043” for “0.0043 μg/ml of Lovastatin for 72 hours and Hep G2 cells were treated with 0.0017”

[5] = tested on: human prostate cancer cells, DU-145; test: In vitro Taxol add-on study (MTT), prostate cancer cells DU-145; settings: Homo sapiens; DU-145 (0.0043 μg/ml Taxol + formula 2) as printed in Table 6
Experimental: as §1, with “human prostate” for “human hepatic”, “cells, LNCaP” for “cells, Hep 3B”, “and DU-145” for “and Hep G2 and MDA-MB-231”, “The LNCaP cells were treated with 0.0017 μg/ml of Taxol for 72 hours and DU-145” for “The Hep 3B”, “0.0043” for “0.0043 μg/ml of Lovastatin for 72 hours and Hep G2 cells were treated with 0.0017”

IC50 [1]: 0.008 µg/mL | IC50 [2]: 0.009 µg/mL | IC50 [4]: 0.961 µg/mL | IC50 [5]: 0.515 µg/mL
Compound: COC1=C(OC)C(O)C(C/C=C(\C)CC/C=C(\C)CCC=C(C)C)C(C)C1=O (centres unmarked) [formula 2, 4-hydroxy-2,3-dimethoxy-6-methyl-5(3,7,11-trimethyl-dodeca-2,6,10-trienyl)-cyclohex-2-enone]
IC50 [3]: 1.68 µg/mL
